Measured values taken from patent publication US20110091638A1, “METHOD OF ANIMAL SLAUGHTER” (priority 2007, published 2011).

Assays:
[1] = system: Atlantic salmon (Salmo salar); assay: Atlantic salmon transferred into CO saturated seawater
Protocol: (§1) Mackerel (Scomber scombrus) of about 700 g bodyweight were transferred from seawater into CO saturated seawater at about 16° C. in a 1 m×1 m plastic tank. CO saturation was achieved by pre-flushing the seawater (250 L) with 99.3% pure carbon monoxide (from Yara AS, Norway) for 5 minutes at 2.0 bar through two Wedge-lock diffusers (from Sterner Aqua, Norway). The CO content was monitored and never exceeded 50 ppm in the vicinity of the tank.
Atlantic salmon (Salmo salar) of 0.7 to 1.5 kg bodyweight were transferred from seawater into CO saturated seawater (as in Example 1).

[2] = system: Mackerel (Scomber scombrus); assay: Mackerel transferred into CO saturated seawater
Protocol: as §1

[3] = system: Atlantic halibut (Hippoglossus hippoglossus); assay: Atlantic halibut transferred into CO saturated seawater
Protocol: as §1
Atlantic halibut (Hippoglossus hippoglossus) of about 1.5 kg bodyweight were transferred into CO saturated seawater (as in Example 1).

## [C-]#[O+] [carbon monoxide]
[1]; continued exposure after anaesthesia
  further exposure time until fish died and turned belly up: more than one
[1]; salmon 0.7 to 1.5 kg
  time until fish were relaxed, sedated and finally anesthetised: about 5 minutes
[1]; until anaesthesia
  signs of stress or discomfort during exposure: no signs of stress or discomfort
[2]; about 16° C., mackerel about 700 g
  time until fish showed signs of fatigue: about 5 minutes
[2]; continued exposure after signs of fatigue
  further exposure time until fish died and turned belly up: 5 min
[3]; continued exposure after loss of flight reaction
  further exposure time until fish died: two
[3]; halibut about 1.5 kg
  time until flight reaction was not pronounced: about 2 minutes
